# Values of other authors in publication PMC6650409, “Modeling the binding of diverse ligands within the Ah receptor ligand binding domain” (Scientific Reports, 2019).
# What was measured:
# [1] = system: zebrafish AhR1a (zfAhR1a); settings: cited from earlier work
# mAhR = target: T1, mAhR (Mus musculus, UniProt P30561); design: method as in PMID 21981577; settings: in words; cited from earlier work
# T1 construct: made in house; host or cells: in vitro, Promega TNT Quick coupled transcription/translation rabbit reticulocyte lysate
# T1 sequence (P30561 10-848): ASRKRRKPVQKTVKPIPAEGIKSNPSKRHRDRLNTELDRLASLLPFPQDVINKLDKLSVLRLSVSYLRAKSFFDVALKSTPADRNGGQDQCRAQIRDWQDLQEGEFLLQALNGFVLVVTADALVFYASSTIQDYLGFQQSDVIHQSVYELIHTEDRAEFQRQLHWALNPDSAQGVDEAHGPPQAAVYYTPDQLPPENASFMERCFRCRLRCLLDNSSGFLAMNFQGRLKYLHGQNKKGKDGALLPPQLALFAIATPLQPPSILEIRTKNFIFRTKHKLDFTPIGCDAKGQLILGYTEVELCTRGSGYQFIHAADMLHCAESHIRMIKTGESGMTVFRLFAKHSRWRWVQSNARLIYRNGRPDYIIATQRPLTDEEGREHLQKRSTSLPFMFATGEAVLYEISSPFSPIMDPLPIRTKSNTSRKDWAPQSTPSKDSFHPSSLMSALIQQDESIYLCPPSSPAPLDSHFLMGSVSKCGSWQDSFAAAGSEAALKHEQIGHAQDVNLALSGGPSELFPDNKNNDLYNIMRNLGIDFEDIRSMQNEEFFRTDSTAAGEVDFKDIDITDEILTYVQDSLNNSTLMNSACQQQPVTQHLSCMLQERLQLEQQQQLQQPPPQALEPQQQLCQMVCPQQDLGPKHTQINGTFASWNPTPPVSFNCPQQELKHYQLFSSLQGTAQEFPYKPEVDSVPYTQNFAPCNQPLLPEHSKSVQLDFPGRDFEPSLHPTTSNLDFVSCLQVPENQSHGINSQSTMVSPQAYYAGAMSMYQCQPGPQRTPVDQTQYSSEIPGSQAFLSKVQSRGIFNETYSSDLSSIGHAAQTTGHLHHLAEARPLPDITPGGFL
# AhR = system: AhR; design: method as in PMID 21981577; settings: in words; cited from earlier work
Compound,ligand binding to zfAhR1a [1],displacement of [3H]TCDD specific binding to the mAhR (mAhR),AhR agonist activity (AhR)
"Cc1oncc1C(=O)Nc1ccc(C(F)(F)F)cc1 [LEFL, Leflunomide]",could still bind and be activated,,
O=[N+]([O-])c1cc(C(F)(F)F)ccc1NCc1ccco1 [THS-020],,could competitively displace,acted as AhR agonists
O=[N+]([O-])c1cc(C(F)(F)F)ccc1NCc1ccsc1 [THS-017],,could competitively displace,acted as AhR agonists
